Literature values as cited in patent publication US9962390B2, “Mosapride sustained-release formulation providing pharmacological and clinical effects with once-daily administration” (Korea United Pharm. Inc., priority 2013, dated 2018).
Where a name gives a salt, the structure may show the parent alone.

How the values were obtained:
[1] = not given; remark: listed apart in the source

| Compound | concentration in eyeballs relative to blood (eyeballs) | concentration relative to that in blood plasma (liver, small intestine, kidney, and adrenal glands) | absorbed in the digestive tract (orally administered) | water solubility compared with Mosapride [1] |
| --- | --- | --- | --- | --- |
| CCOc1cc(N)c(Cl)cc1C(=O)NCC1CN(Cc2ccc(F)cc2)CCO1 (stereo not shown) [Mosapride, 4-amino-5-chloro-2-ethoxy-N-{[4-(4-fluorobenzyl)-2-morpholinyl]methyl}benzamide] | about half the concentration in blood | at least 10 times | more than 93% |  |
| CCOc1cc(N)c(Cl)cc1C(=O)NCC1CN(Cc2ccc(F)cc2)CCO1 (stereo not shown) [Mosapride citrate] |  |  |  | higher water solubility |
